# Data: patent US20120251495A1, “PTERIN BASED THERAPIES FOR INFLAMMATORY CONDITIONS” (priority 2008, published 2012)
# Columns and labels:
# [1] = test system: MDA-MB-231 xenograph tumors; experiment: Combined analysis of DCP + control mice: Day 42,43 relative tumor volume and DCP/APCP; type: in vivo, nude mice
# Protocol: Standard ANOVA models for group effects, curve fitting, and stepwise regression analyses were carried out using SPSS Graduate Pack 15.0 for Windows (2006), with p<0.05 used to determine significance.
# Table 7 gives the plasma cytokine and relative tumor volume Spearman rank order correlations for the 12 DCP+ control mice (Control [n=3; from 1st experiment]; 23 mg/(kg d) DCP [n=5; from 2nd experiment]; and 69 mg/(kg d) DCP [n=4; from 2nd experiment]).
# To further determine significant causal and correlational linkages among DCP dosage, plasma cytokine changes, and relative tumor volume, the following curve fitting analyses were carried out with the 12 DCP+ control mice. First, plotting DCP versus Day 42,43 Relative Tumor Volume yielded a significant quadratic relationship (FIG. 11). Second, curve fitting each cytokine versus Day 42,43 Relative Tumor Volume found no significant linear relationship and only one significant quadratic relationship, i.e., with IL-12 (p=0.004; FIG. 12). Third, plotting DCP versus IL-12 yielded a weakly significant quadratic relationship (p=0.048; FIG. 13).
# Substantially more significant analogous plots were generated by first carrying out the Table 8 stepwise regression analysis which derived the DCP antitumor plasma cytokine pattern (DCP/APCP), shown to be a more significant cytokine composite measure than IL-12 taken alone. The Table 8 stepwise regression analysis of the cytokine data from the 12 DCP+ control mice allowed for the calculation of DCP/APCP scores for each mouse. These DCP/APCP scores are plotted versus DCP dosage in […], which illustrates the significant quadratic dose-response relationships of DCP versus the derived plasma DCP/APCP composite measure. From this figure the estimated optimum dosage of DCP for maximum tumor growth inhibition is 42 mg/(kg day), while the estimated optimum dosage for maximum DCP/APCP induction is 44 mg/(kg day).
# [2] = test system: serum cytokines/chemokines; experiment: Serum cytokine/chemokine array in HBV transgenic mice; type: in vivo
# Protocol: Experimental design. DCP was administered per os, once daily for 14 days to randomly assigned HBV transgenic mice at 23, 7.3, and 2.3 mg/(kg d). ADV was used as a positive control at 10 mg/(kg d) using the same treatment schedule and vehicle (0.4% CMC). On day 14, mice were euthanized to collect serum and liver samples to perform liver HBV DNA, liver core and serum HBe assays, serum cytokine/chemokine profiles, and IDO metabolite assays.
# Liver or serum cytokine/chemokine array. Liver samples were prepared for the Q-Plex™ mouse cytokine/chemokine array (Quansys Biosciences, Logan, Utah) as described previously (Morrey J D, Molter N E, Taro B, Lay M & Fairman J. Efficacy of cationic lipid-DNA complexes (CLDC) on hepatitis B virus in transgenic mice. Antiviral Res 2008; 79:71-79).
# [3] = test system: MDA-MB-231 human breast tumor xenographs; experiment: Antitumor efficacy in nude mice with MDA-MB-231 xenographs, 1st experiment; type: in vivo, athymic nude (nu/nu) mice; conditions: for Day 60 Rel Tum Vol: mean ± SEM
# Protocol: The aims of the 1st experiment were to determine a dose-response curve for the (1:4 mol:mol) calcium pterin suspension, to compare the antitumor activity of this suspension to pterin alone (pterin control), and to test the effect of CaPterin mega-dosing at 100 mg/kg/day. Antitumor efficacy was evaluated in nude mice with MDA-MB-231 human tumor xenographs by Perry Scientific (San Diego, Calif.). In the 1st experiment, twenty-three athymic nude (nu/nu) female mice, ages 3-4 weeks, were purchased from Harlan Sprague Dawley, Inc. (Indianapolis, Ind.). 5×10^6 MDA-MB-231 cancer cells were injected subcutaneously into the right flank of each mouse. When tumors reached 3-5 mm in size, twenty mice were divided into four treatment/control groups of five mice each. The four treatment groups were: (1:4 mol:mol) calcium pterin (7 mg/kg/day); pterin (21 mg/kg/day); (1:4 mol:mol) calcium pterin (21 mg/kg/day); and sterile water control. Two mice with outlying tumor sizes or non-tumor takes were excluded shortly after treatment began: one from the pterin group and one from the control group. […] Only one outlier persisted >4 days, for 14 days. Also excluded from the metabolic analysis in the 1st experiment was one mouse from each of the four experimental groups mega-dosed by oral gavage with 100 mg/kg/day CaPterin for tip to 31 days to test for toxicity. All the other mice in the 1st experiment persisted ≧60 days without complications.
# The control mice in the 1st experiment were treated with sterile water while the control mice in the 2nd experiment were untreated to evaluate the effect of mouse handling and gavaging upon tumor growth. Daily dosing was for 7 days per week. Animals were restrained but not anesthetized for oral dosing. Tumors were measured twice weekly with calipers and body weights taken twice weekly on the day of tumor measurements. Blood was collected from all animals via cardiac puncture at termination (after 70 to 98 days of treatment) and processed to EDTA plasma for analysis. Tumor size measurements for the control group in the 2nd experiment on days 4 and 7 were missed due to a technical oversight.
# The MDA-MB-231 human breast tumor cell lines were supplied by SRI International (Menlo Park, Calif.) and propagated using standard in vitro cell expansion methods. Briefly, cells were grown in L-15 media from Gibco (Cat. No. 11415-064) supplemented with 2 mM L-Glutamine and 10% Fetal Bovine Serum (FBS). The cells were cultured in an incubator with 5% CO2, 37.5° C., and 80% humidity. Cells were harvested with 0.25% (w/v) Trypsin-0.03% (w/v) EDTA solution. Cells were prepared for injection by standard methods to appropriate concentrations. Animals were temporarily restrained but not anesthetized for the inoculation of the tumor cells. Animals were subcutaneously injected with the tumor cells in a 100-200 μl volume.
# Each animal was individually tracked for tumor growth by external caliper measurements of protruding tumor. Primary tumor sizes were measured using calipers and an approximate tumor volume calculated using the formula 1/2 (a×b^2), where b was the smaller of two perpendicular diameters.
# For each group, the mean and standard error of the mean (SEM) of the ratio V/Vo, Relative Tumor Volume (RTV), were plotted as a function of treatment time after inoculation. V0 was the tumor volume at Day 0, when treatment began.
# [4] = Toxicity by body weight changes in nude mice; type: in vivo, athymic nude mice
# Protocol: The aims of the 1st experiment were to determine a dose-response curve for the (1:4 mol:mol) calcium pterin suspension, to compare the antitumor activity of this suspension to pterin alone (pterin control), and to test the effect of CaPterin mega-dosing at 100 mg/kg/day. Antitumor efficacy was evaluated in nude mice with MDA-MB-231 human tumor xenographs by Perry Scientific (San Diego, Calif.). In the 1st experiment, twenty-three athymic nude (nu/nu) female mice, ages 3-4 weeks, were purchased from Harlan Sprague Dawley, Inc. (Indianapolis, Ind.). 5×10^6 MDA-MB-231 cancer cells were injected subcutaneously into the right flank of each mouse. When tumors reached 3-5 mm in size, twenty mice were divided into four treatment/control groups of five mice each. The four treatment groups were: (1:4 mol:mol) calcium pterin (7 mg/kg/day); pterin (21 mg/kg/day); (1:4 mol:mol) calcium pterin (21 mg/kg/day); and sterile water control. […]
# The control mice in the 1st experiment were treated with sterile water while the control mice in the 2nd experiment were untreated to evaluate the effect of mouse handling and gavaging upon tumor growth. […] Tumors were measured twice weekly with calipers and body weights taken twice weekly on the day of tumor measurements. […]
compound,measurement,setting,value
"Nc1nc([O-])c2nccnc2n1.Nc1nc([O-])c2nccnc2n1.[Ca+2] [DCP, dipterinyl calcium pentahydrate]",tumor growth inhibition relative to controls (FIG. 9),"[1]; 23 mg/(kg day), Day 42,43 relative tumor volume, combined data",significant tumor growth inhibition
same,plasma IL-4 correlated to antitumor response,[1]; DCP/APCP,increased
same,plasma IL-6 correlated to antitumor response,[1]; DCP/APCP,decreased
same,plasma IL-12 correlated to antitumor response,[1]; DCP/APCP,increased
same,dose range in which antitumor response and cytokine pattern are optimized,[1]; nude mice with MDA-MB-231 xenograph tumors,40-46 mg/(kg day)
same,estimated optimum dosage for maximum DCP/APCP induction,"[1]; quadratic fit, FIG. 11",44 mg/(kg day)
same,estimated optimum dosage for maximum tumor growth inhibition,"[1]; quadratic fit, FIG. 11",42 mg/(kg day)
same,serum chemokine RANTES versus controls,"[2]; male HBV mice, 2.3 mg/(kg day)",significant decrease
same,"IL-4, Female levels (mean ± SEM)","[2]; serum, female, 7.3 mg/(kg d)",241 ± 53 rel. pg/ml
same,"IL-9, Female levels (mean ± SEM)","[2]; serum, female, 7.3 mg/(kg d)",185 ± 28 rel. pg/ml
same,"IL-12, Female levels (mean ± SEM)","[2]; serum, female, 7.3 mg/(kg d)",642 ± 11 rel. pg/ml
same,"IL-4, Male levels (mean ± SEM)","[2]; serum, male, 7.3 mg/(kg d)",87 ± 28 rel. pg/ml
same,"IL-9, Male levels (mean ± SEM)","[2]; serum, male, 7.3 mg/(kg d)",112 ± 13 rel. pg/ml
same,"IL-12, Male levels (mean ± SEM)","[2]; serum, male, 7.3 mg/(kg d)",575 ± 17 rel. pg/ml
(1:4 mol:mol) calcium pterin [CaPterin],antitumor activity (tumor growth vs control),[3]; 7 mg/kg/day,non-significant
same,Day 60 Rel Tum Vol,[3]; 7 mg/kg/day oral,24.0 ± 9.0
same,antitumor activity (tumor growth vs control),[3]; 21 mg/kg/day,significantly inhibits
same,Day 60 Rel Tum Vol,[3]; 21 mg/kg/day oral,7.9 ± 1.3
same,T/C ratio (mean treatment tumor volume to mean control tumor volume),"[3]; 21 mg/kg/day, after 60 days",41%
same,"Spearman rank order correlation rs, Day 60 Relative Tumor Volume versus dose","[3]; n=14, p=0.005",0.70
same,toxicity (appreciable weight loss),[4]; mega-dosed 100 mg/kg/day oral gavage for up to 31 days,no observed toxicity
same,greatest weight loss (body weight),"[4]; mega-dosed group 100 mg/kg/day, one mouse, after 32 days",8.1%
